# Legend:
# Assay type in all cases: cell-based
# Streptococcus Aronson [1] = experiment: Serial dilution test; settings: Streptococcus, 18-20 hours at 37° C., read-out: MIC, S.D.T., Streptococcus Aronson
# Protocol: (§1) The inhibitory effect on bacteria and fungi was examined by the serial dilution test and the agar diffusion test (hole-test). As bacteria were used: Staphylococcus aureus SG 511, Streptococcus Aronson, Streptococcus pyogenes At CC 86 68; as fungi: Candida albicans AT CC 10231, Trichophyton mentagrophytes AT CC 9129 and Aspergillus niger.
# (§2) 2. Glucose broth: for Sc. Aronson and St. pyogenes Recipe see meat extract broth. After sterilization 1 weight percent of glucose is added as a sterile 50% solution.
# (§3) The age of the primary cultures is 24 hours for bacteria and 14 days for fungi. The standardization of the suspension of microorganisms is effected using a photometer according to Eppendorf (test tube .phi.14 mm, filter 546 nm) and a suspension for comparison consisting of barium sulfate, this suspension being created by adition of 3.0 ml of 1% barium chloride solution to 97 ml of 1% sulfuric acid. After the standardization the bacteria were further diluted to a concentration of 1:1000 by means of sodium chloride solution, the fungi were used in an undiluted state.
# (§4) 40 mgm of the substance were put into a 10 ml measuring flask and filled up to the mark with the solvent (corresponds to a dilution of 1:250=4000 μg/ml). The further dilution series was standardized with distilled water or the respective solvent and the following substance concentrations were prepared: 1000; 250; 62.5 μg/ml.
# (§5) The tubes were filled with 4.9 ml of the corresponding liquid nutrient medium. Then 0.1 ml of the substance dilution prepared above was added to each tube, so that the mentioned final concentrations were present. Finally each tube was inoculated with 0.1 ml of the standardized suspension of microorganisms. Control tests merely using the solvent are to be carried out simultaneously.
# (§6) Bacteria were incubated at 37° C. for 18-20 hours and fungi at 27° C. for 7 days.
# (§7) The measurement is carried out macroscopically defining the minimal inhibitory concentration (the lowest still microbiostatically effective concentration).
# [2] = system: Streptococcus pyogenes At CC 86 68; experiment: Serial dilution test; settings: for MIC: Streptococcus pyogenes, ATCC8668, 18-20 hours at 37° C., read-out: MIC, S.D.T., Streptococcus pyogenes
# Protocol: as §1, §2, §3, §4, §5, §6, §7
# Corynebacterium acnes = experiment: Serial dilution test for Corynebacterium acnes; settings: for MIC: Cutibacterium acnes, 37° C. for 48 hours, read-out: MIC, S.D.T., Corynebacterium acnes
# Protocol: Serial dilution test for Corynebacterium acnes and Pityrosporum ovale Nutrient medium
# For Corynebacterium acnes: thioglycolate-broth for Pityrosporum ovale: Littmann's broth, 5 ml per tube.
# Suspension of microorganisms in 0.9% sodium chloride solution, standardized using a photometer according to Eppendorf by means of a suspension for comparison consisting of barium sulfate, for Corynebacterium acnes in a dilution of 1:100, for Pityrosporum ovale in an undiluted state. 0.1 ml of the suspensions was used per test tube. Dimethyl sulfoxide served as a solvent for the substances.
# The suspension with Corynebacteria acnes was incubated at 37° C. for 48 hours, the suspension of Pityrosporum ovale at 27° C. for 7 days. The reading was effected by macroscopic evaluation of the growth of microorganisms and registration of the minimal inhibitory concentration.
# [3] = system: Staphylococcus aureus SG 511; experiment: Serial dilution test; settings: for MIC: Staphylococcus aureus, SG511, 18-20 hours at 37° C., read-out: MIC, S.D.T., Staphylococcus aureus SG 511
# Protocol: as §1
# 1. Meat extract broth: for St. aureus SG 511
# as §3, §4, §5, §6, §7
# Streptococcus Aronson [4] = experiment: Agar diffusion test (hole-test); settings: 18-20 hours at 37° C., read-out: MIC, A.D.T., Streptococcus Aronson
# Protocol: as §1
# (§8) 2. Glucose agar: for Sc. Aronson and St. pyogenes Recipe see meat extract agar. After sterilization 1 weight percent of glucose is added as a sterile 50% solution.
# as §3, with “addition” for “adition”, “St. aureus SG 511 was” for “the bacteria were further”, “diluted” for “diluted to a concentration of”, “1:1000 and Sc. pyogenes and Aronson 1:100” for “1:1000”, “solution. The” for “solution, the”
# (§9) 40 mgm of the substance were put into a 10 ml measuring flask and filled up to the mark with the solvent (corresponds to a dilution of 1:250=4000 μg/ml).
# (§10) The dilutions to the concentrations under test were effected with distilled water or the respective solvent.
# (§11) 19 ml of the nutrient medium were filled into sterile Petri dishes of a diameter of 8 cm and dried. Subsequently the agar plates were charged with 4 ml of seed agar. 100 ml of seed agar contain 1.25 ml of the suspension of microorganisms, an agar plate thus containing 0.05 ml of the suspension of microorganisms. After solidification of the agar, 5 holes of a diameter of 5 mm were punched into the plates and filled with 0.05 ml of the correspondingly concentrated substance solution.
# (§12) Control tests merely using the solvent are to be carried out simultaneously.
# as §6
# (§13) The diameter of the area of inhibition in mm was measured after having deducted the diameter of the hole.
# [5] = system: Streptococcus pyogenes At CC 86 68; experiment: Agar diffusion test (hole-test); settings: ATCC8668, 18-20 hours at 37° C., read-out: MIC, A.D.T., Streptococcus pyogenes
# Protocol: as §1, §8
# as §3, with “addition” for “adition”, “St. aureus SG 511 was” for “the bacteria were further”, “diluted” for “diluted to a concentration of”, “1:1000 and Sc. pyogenes and Aronson 1:100” for “1:1000”, “solution. The” for “solution, the”
# as §9, §10, §11, §12, §6, §13
# [6] = system: Staphylococcus aureus SG 511; experiment: Agar diffusion test (hole-test); settings: SG511, 18-20 hours at 37° C., read-out: MIC, A.D.T., Staphylococcus aureus SG 511
# Protocol: as §1
# 1. Meat extract agar: for St. aureus SG 511
# as §3, with “addition” for “adition”, “St. aureus SG 511 was” for “the bacteria were further”, “diluted” for “diluted to a concentration of”, “1:1000 and Sc. pyogenes and Aronson 1:100” for “1:1000”, “solution. The” for “solution, the”
# as §9, §10, §11, §12, §6, §13
# HeLa-cell culture = experiment: Inhibition of HeLa cell cultures; settings: Homo sapiens, 72 h, 37° C. for 3 days, 5% carbon dioxide; for IC50: read-out: ED50, HeLa cell culture; for minimal effective concentration: read-out: Minimal inhibitory concentration, HeLa cell culture
# Protocol: Measurement of the inhibition of cell cultures
# HeLa-cell culture was treated with trypsin and adjusted to a cell number of 150,000 cells/ml of fresh medium. The substance was always dissolved in the same quantity of dimethyl sulfoxide and then further diluted with growth medium. 0.1 ml of the substance-dilutions were added to each well of microtiter plates and then 0.2 ml of cell suspension were added (4 wells per dilution). Several growth controls containing 0.1 ml of growth medium instead of 0.1 ml of substance dilution were put up. After careful mixing, the cultures were incubated at 37° C. for 3 days in a 5% carbon dioxide atmosphere. The reading was effected in comparison with these controls. The results were given as the percentage of the deficiency and degeneration compared to the growth control. […] The statements are referred to μg of substance per ml of total medium.
# [7] = reduced growth at this concentration
MIC (Streptococcus Aronson [1]) [µg/mL],MIC [2] [µg/mL],MIC (Corynebacterium acnes) [µg/mL],MIC [3] [µg/mL],MIC (Streptococcus Aronson [4]) [µg/mL],MIC [5] [µg/mL],MIC [6] [µg/mL],IC50 (HeLa-cell culture) [µg/mL],SMILES,minimal effective concentration (HeLa-cell culture) [µg/mL],"Concentration with reduced growth (value in brackets), S.D.T., Streptococcus pyogenes [2, 7] [µg/mL]","Concentration with reduced growth (value in brackets), S.D.T., Staphylococcus aureus SG 511 [3, 7] [µg/mL]","Concentration with reduced growth (value in brackets), S.D.T., Corynebacterium acnes (Corynebacterium acnes; [7]) [µg/mL]"
1.25,0.31,1.25,0.31,≤ 15.6,≤ 15.6,≤ 15.6,5.8,"CC(C)CCc1cc(C(=O)C(F)(F)F)c(O)cc1O [G, 2,4-Dihydroxy-5-iso-pentyl-trifluoroacetophenone]",0.78,–,–,–
0.08,0.31,0.08,0.31,≤ 15.6,≤ 15.6,≤ 15.6,–,"CC1CC(C)CC(c2cc(C(=O)C(F)(F)F)c(O)cc2O)C1 (stereo not drawn) [I, 2,4-Dihydroxy-5-(3',5'-dimethyl)-cyclohexyl-tri-fluoroacetophenone]",–,–,–,–
5,1.25,0.02,5,≤ 15.6,≤ 15.6,≤ 15.6,–,"CCCCCCCCCc1cc(C(=O)C(F)(F)F)c(O)cc1O [J, 2,4-Dihydroxy-5-n-nonyl-trifluoroacetophenone]",–,0.08,1.25,–
1.25,0.31,0.08,1.25,≤ 15.6,≤ 15.6,≤ 15.6,2.27,CCCCC(C)c1c(O)ccc(C(=O)C(F)(F)F)c1O (stereo not drawn) [K],0.78,–,–,–
0.31,0.08,1.25,0.31,≤ 15.6,62.5,62.5,–,"O=C(c1ccc(O)c(C2CCCCCCCCCCC2)c1O)C(F)(F)F [L, 2,4-Dihydroxy-3-cyclododecyl-trifluoroacetophenone]",–,–,–,0.31
